Literature values in paper PMC5133935, “Hydrostatin-TL1, an Anti-Inflammatory Active Peptide from the Venom Gland of Hydrophis cyanocinctus in the South China Sea” (International Journal of Molecular Sciences, 2016).

Test system: TNF-α
Conditions: cited from earlier work
From the text: Snake-derived products have been used as traditional Chinese medicines for centuries in China; however, their mechanisms of action and active constituents are still unknown. Snake venom, which is a mixture of proteins and peptides, has various biological properties including antitumor, anti-inflammatory, anti-stroke, and analgesic activities. […] Venom from s ...

Cathelicidin-BF
antimicrobial and anti-inflammatory properties: both antimicrobial and anti-inflammatory properties | expression and secretion of TNF-α: decreases the expression and secretion of TNF-α
